Measured values: patent US20080255041A1, “Treatment of annulus fibrosis defects” (EBI, L.P., priority 2007, published 2008)

System: annulus fibrosis of the defective disc
Assay: Injection of the composition into the annulus fibrosis of a patient with degenerative disc disease
Format: in vivo, human
Conditions: patient with transverse annulus fibrosis tear between fifth lumbar and sacrum; F2A4-K—NS in hyaluronic acid carrier injected by syringe
Description: A syringe containing the synthetic molecule F2A4-K—NS and a hyaluronic acid carrier is used to inject the composition into the annulus fibrosis of the defective disc. […] In the above example, collagen, heparin sulfate or propylene glycol is substituted for hyaluronic acid, to form gel carriers, with substantially similar results.

## H—YRSRKYSSWYVALKRK(H—YRSKYSSWYVALKR)-Ahx-Ahx-Ahx-RKRLDRIAR—NH2 [F2A4-K—NS]
  angiogenesis at the site of the annulus fibrosis defect: promotes angiogenesis
  degeneration of the disc / closure of the annulus fibrosis tear: prevents further degeneration of the disc
